Values quoted from earlier work in patent publication US20100209363A1, “PERSONAL CLEANSING COMPOSITION INCLUDING A STRUCTURED SURFACTANT SYSTEM AND A SUN PROTECTION FACTOR COMPOSITION” (The Dial Corporation, priority 2009, published 2010).

Details: in capric triglyceride

concentration up to which miscible with capric triglyceride | miscibility with capric triglyceride | SMILES
up to 16 wt. % | miscible | COc1ccc(C(=O)CC(=O)c2ccc(C(C)(C)C)cc2)cc1 [avobenzone, 4-tert-butyl-4′-methoxydibenzoylmethane]
 | miscible | CCCCC(CC)COC(=O)C(C#N)=C(c1ccccc1)c1ccccc1 (stereo not drawn) [octocrylene, 2-ethylhexyl 2-cyano-3,3-diphenylacrylate]
